The test system of series [1] is MOLM-13. The experiment in a line: Induction of apoptosis in human MOLM-13 cells at 0.375 to 6 uM incubated for 24 hrs by Western blot analysis. The format is functional, cell-based. To be noted: dose 0.375-6 µM.
Series [2] can be described thus: Antiproliferative activity against HEK293 cells incubated for 4 days by CCK8 assay. The class given is toxicity, cell-based. As to conditions: human. A general note: Formazan colour is commonly taken as a measure of viable cells.
Series [3] relates to MOLM-13. In words: cells. To be noted: Homo sapiens, MOLM-13, 48 h.
Series [4] has as its system A549. In words: cells. As to conditions: Homo sapiens, A549, 96 h.
Series [5] has as its system HeLa. The experiment in a line: cells. To be noted: Homo sapiens, 96 h.
Series [6] relates to SW480. The experiment in a line: cells. To be noted: Homo sapiens, SW480, 96 h.

Data on one compound can be found in ChEMBL document CHEMBL5512651, “Synthesis and biological evaluation of 4-imidazolidinone-containing compounds as potent inhibitors of the MDM2/p53 interaction” (Eur J Med Chem, 2024).

The source made the active and inactive calls. No cut-off for these calls is given here.

The term IC50 denotes the point on the concentration scale where inhibition reaches its midpoint. A low value points to higher potency. For `COc1ccc(C2=N[C@@H](c3ccc(Cl)cc3)[C@@H](c3ccc(Cl)cc3)N2C(=O)N2CCNC(=O)C2)c(OC(C)C)c1` [NUTLIN-3], in series [1], the result was Active. Further, in series [2], the IC50 at 4 days is 26.7 µM. Further, the IC50 in series [3] is 0.199 µM; in series [4], 2.05 µM; in series [5] it was 31.4 µM; in series [6], 16.4 µM.
